Assay results taken from US10131652B2, “Pyrimidinyloxy benzene derivatives as herbicides” (E. I. DU PONT DE NEMOURS AND COMPANY, priority 2014, dated 2018).

Columns and labels:
Type in all cases: in vivo
[1] = system: giant foxtail (Setaria faberii); assay: Test D pre-/postemergence plant response
Outline: (§1)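 Test chemicals were formulated in a non-phytotoxic solvent mixture containing surfactant and applied either preemergence to seeds in loam–sand soil or postemergence to plants 2 to 18 cm tall (1- to 4-leaf stage). Response was rated visually against controls after 13 to 15 days, from 0 (none) to 100 (complete control).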

[2] = system: barnyardgrass (Echinochloa crus-galli); assay: Test D pre-/postemergence plant response
Outline: as §1

[3] = system: yellow nutsedge (Cyperus esculentus); assay: Test D pre-/postemergence plant response
Outline: as §1

[4] = system: Italian ryegrass (Lolium multiflorum); assay: Test D pre-/postemergence plant response
Outline: as §1

corn (Zea mays) = assay: Test D pre-/postemergence plant response
Outline: as §1

[5] = system: waterhemp (common waterhemp, Amaranthus rudis); assay: Test D pre-/postemergence plant response
Outline: as §1

[6] = system: oilseed rape (Brassica napus); assay: Test D pre-/postemergence plant response
Outline: as §1

[7] = system: pigweed (Amaranthus retroflexus); assay: Test D pre-/postemergence plant response
Outline: as §1

soybean (Glycine max) = assay: Test D pre-/postemergence plant response
Outline: as §1

[8] = system: morningglory (Ipomoea coccinea); assay: Test D pre-/postemergence plant response
Outline: as §1

[9] = system: ragweed (common ragweed, Ambrosia elatior); assay: Test D pre-/postemergence plant response
Outline: as §1

[10] = system: galium (catchweed bedstraw, Galium aparine); assay: Test B postemergence plant response
Outline: (§2)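 Values are visual control ratings (0 to 100) recorded approximately 10 days after postemergence application to greenhouse-grown plants of 2 to 10 cm, one- to two-leaf stage, each judged against untreated controls.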

[11] = system: blackgrass (Alopecurus myosuroides); assay: Test B postemergence plant response
Outline: as §2

[12] = system: chickweed (common chickweed, Stellaria media); assay: Test D postemergence plant response; conditions: for Plant response rating, Chickweed: scale 0 to 100, 0 no effect, 100 complete control
Outline: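 Visual 0–100 rating vs controls (0 = no effect, 100 = complete control), scored 13–15 d after postemergence spray. Plants 1- to 4-leaf stage (2–18 cm), potted in peat/vermiculite mix, kept in greenhouse.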

[13] = Postemergence, 31 g ai/ha, scale 0 to 100 (0 no effect, 100 complete control)
[14] = Postemergence, 62 g ai/ha, scale 0 to 100, 0 no effect, 100 complete control
[15] = Postemergence, 125 g ai/ha, scale 0 to 100, 0 no effect, 100 complete control
[16] = Preemergence, 16 g ai/ha, scale 0 to 100 (0 no effect, 100 complete control)
[17] = Preemergence, 31 g ai/ha, scale 0 to 100 (0 no effect, 100 complete control)
[18] = Preemergence, 62 g ai/ha, scale 0 to 100 (0 no effect, 100 complete control)
[19] = 125 g ai/ha, postemergence, 0 to 100 scale, 0 no effect, 100 complete control
[20] = Postemergence, 500 g ai/ha, 0 to 100 scale (0 no effect, 100 complete control)

FC(F)c1cc(-c2c(Cl)cccc2Oc2ncc(Cl)cn2)no1 [Compound 179]
100: Plant response rating (scale 0 to 100), Waterhemp ([5]; Preemergence, 125 g ai/ha) | Plant response rating, Oilseed Rape [6, 15] | Plant response rating (scale 0 to 100), Oilseed Rape ([6]; Preemergence, 125 g ai/ha) | Plant response rating (scale 0 to 100), Pigweed ([7]; Preemergence, 125 g ai/ha) | Plant response rating, Pigweed [7, 17] | Plant response rating, Pigweed [7, 18] | Plant response rating, Galium [10, 19] | Plant response rating, Galium [10, 20] | Plant response rating, Blackgrass [11, 20]
15: Plant response rating, Barnyardgrass [2, 18] | Plant response rating, Ryegrass, Italian [4, 18] | Plant response rating, Corn (corn (Zea mays); [15]) | Plant response rating (scale 0 to 100), Morningglory ([8]; Preemergence, 125 g ai/ha)
70: Soybean plant response rating (soybean (Glycine max); [14]) | Plant response rating, Soybean (soybean (Glycine max); [15]) | Plant response rating (scale 0 to 100), Chickweed ([12]; 16 g ai/ha)
98: Plant response rating, Waterhemp [5, 15] | Pigweed plant response rating [7, 14] | Plant response rating, Pigweed [7, 15]
35: Plant response rating (scale 0 to 100), Barnyardgrass ([2]; Preemergence, 125 g ai/ha)
20: Plant response rating, Ryegrass, Italian [4, 15]
5: Plant response rating (scale 0 to 100), Foxtail, Giant ([1]; Postemergence, 16 g ai/ha) | Foxtail, Giant plant response rating [1, 13] | Plant response rating, Foxtail, Giant [1, 16] | Plant response rating, Barnyardgrass [2, 14] | Plant response rating, Barnyardgrass [2, 15] | Plant response rating, Barnyardgrass [2, 17] | Plant response rating (scale 0 to 100), Nutsedge, Yellow ([3]; Postemergence, 16 g ai/ha) | Nutsedge, Yellow plant response rating [3, 13] | Nutsedge, Yellow plant response rating [3, 14] | Plant response rating, Nutsedge, Yellow [3, 15] | Ryegrass, Italian plant response rating [4, 13] | Ryegrass, Italian plant response rating [4, 14] | Plant response rating, Ryegrass, Italian [4, 17] | Plant response rating (scale 0 to 100), Corn (corn (Zea mays); Postemergence, 16 g ai/ha) | Plant response rating (scale 0 to 100), Corn (corn (Zea mays); Preemergence, 125 g ai/ha)
30: Plant response rating, Foxtail, Giant [1, 15] | Plant response rating, Foxtail, Giant [1, 17] | Plant response rating, Oilseed Rape [6, 16] | Plant response rating, Pigweed [7, 16] | Plant response rating, Soybean (soybean (Glycine max); [18]) | Plant response rating (scale 0 to 100), Morningglory ([8]; Postemergence, 16 g ai/ha) | Plant response rating (scale 0 to 100), Ragweed ([9]; Postemergence, 16 g ai/ha) | Plant response rating, Ragweed [9, 17]
0: Plant response rating (scale 0 to 100), Barnyardgrass ([2]; Postemergence, 16 g ai/ha) | Barnyardgrass plant response rating [2, 13] | Plant response rating, Barnyardgrass [2, 16] | Plant response rating, Nutsedge, Yellow [3, 16] | Plant response rating, Nutsedge, Yellow [3, 17] | Plant response rating, Nutsedge, Yellow [3, 18] | Plant response rating (scale 0 to 100), Ryegrass, Italian ([4]; Postemergence, 16 g ai/ha) | Plant response rating, Ryegrass, Italian [4, 16] | Plant response rating, Corn (corn (Zea mays); [16]) | Plant response rating, Corn (corn (Zea mays); [17]) | Plant response rating, Corn (corn (Zea mays); [18]) | Plant response rating, Soybean (soybean (Glycine max); [16]) | Plant response rating, Soybean (soybean (Glycine max); [17]) | Plant response rating, Morningglory [8, 16] | Plant response rating, Morningglory [8, 17] | Plant response rating, Morningglory [8, 18]
45: Soybean plant response rating (soybean (Glycine max); [13]) | Plant response rating (scale 0 to 100), Soybean (soybean (Glycine max); Preemergence, 125 g ai/ha)
25: Plant response rating (scale 0 to 100), Nutsedge, Yellow ([3]; Preemergence, 125 g ai/ha) | Plant response rating (scale 0 to 100), Soybean (soybean (Glycine max); Postemergence, 16 g ai/ha) | Ragweed plant response rating [9, 13] | Plant response rating, Ragweed [9, 16]
10: Corn plant response rating (corn (Zea mays); [13]) | Plant response rating, Corn (corn (Zea mays); [14])
75: Plant response rating, Waterhemp [5, 16] | Oilseed Rape plant response rating [6, 13]
65: Morningglory plant response rating [8, 13]
95: Waterhemp plant response rating [5, 14] | Plant response rating, Oilseed Rape [6, 17] | Plant response rating, Chickweed ([12]; 62 g ai/ha) | Plant response rating, Chickweed ([12]; 125 g ai/ha)
80: Plant response rating (scale 0 to 100), Ryegrass, Italian ([4]; Preemergence, 125 g ai/ha) | Plant response rating (scale 0 to 100), Pigweed ([7]; Postemergence, 16 g ai/ha) | Plant response rating, Blackgrass [11, 19] | Chickweed plant response rating ([12]; 31 g ai/ha, scale 0 to 100 (0 no effect, 100 complete control))
40: Plant response rating, Foxtail, Giant [1, 14] | Plant response rating (scale 0 to 100), Oilseed Rape ([6]; Postemergence, 16 g ai/ha) | Plant response rating, Ragweed [9, 18]
60: Plant response rating (scale 0 to 100), Waterhemp ([5]; Postemergence, 16 g ai/ha) | Plant response rating, Ragweed [9, 15] | Plant response rating (scale 0 to 100), Ragweed ([9]; Preemergence, 125 g ai/ha)
85: Plant response rating (scale 0 to 100), Foxtail, Giant ([1]; Preemergence, 125 g ai/ha) | Plant response rating, Foxtail, Giant [1, 18] | Oilseed Rape plant response rating [6, 14] | Morningglory plant response rating [8, 14]
50: Ragweed plant response rating [9, 14]
90: Waterhemp plant response rating [5, 13] | Plant response rating, Waterhemp [5, 17] | Plant response rating, Waterhemp [5, 18] | Pigweed plant response rating [7, 13] | Plant response rating, Morningglory [8, 15]
